Measured values published in patent US8178579B2, “Dioxanes and uses thereof” (President and Fellows of Harvard College, priority 2001, dated 2012).

Assays:
HDAC6F H216A mutant = target: T1, HDAC6F H216A mutant (Homo sapiens, UniProt Q9UBN7, H216A); assay: in vitro deacetylase assay with [3H]-histones, HDAC6F H216A mutant; type: biochemical; conditions: [3H]-labeled histones, n=3
T1 construct: made in house; host or cells: TAg Jurkat cells, transient transfection, anti-FLAG M2 immunoprecipitation
T1 sequence (Q9UBN7 1-1215 H216A): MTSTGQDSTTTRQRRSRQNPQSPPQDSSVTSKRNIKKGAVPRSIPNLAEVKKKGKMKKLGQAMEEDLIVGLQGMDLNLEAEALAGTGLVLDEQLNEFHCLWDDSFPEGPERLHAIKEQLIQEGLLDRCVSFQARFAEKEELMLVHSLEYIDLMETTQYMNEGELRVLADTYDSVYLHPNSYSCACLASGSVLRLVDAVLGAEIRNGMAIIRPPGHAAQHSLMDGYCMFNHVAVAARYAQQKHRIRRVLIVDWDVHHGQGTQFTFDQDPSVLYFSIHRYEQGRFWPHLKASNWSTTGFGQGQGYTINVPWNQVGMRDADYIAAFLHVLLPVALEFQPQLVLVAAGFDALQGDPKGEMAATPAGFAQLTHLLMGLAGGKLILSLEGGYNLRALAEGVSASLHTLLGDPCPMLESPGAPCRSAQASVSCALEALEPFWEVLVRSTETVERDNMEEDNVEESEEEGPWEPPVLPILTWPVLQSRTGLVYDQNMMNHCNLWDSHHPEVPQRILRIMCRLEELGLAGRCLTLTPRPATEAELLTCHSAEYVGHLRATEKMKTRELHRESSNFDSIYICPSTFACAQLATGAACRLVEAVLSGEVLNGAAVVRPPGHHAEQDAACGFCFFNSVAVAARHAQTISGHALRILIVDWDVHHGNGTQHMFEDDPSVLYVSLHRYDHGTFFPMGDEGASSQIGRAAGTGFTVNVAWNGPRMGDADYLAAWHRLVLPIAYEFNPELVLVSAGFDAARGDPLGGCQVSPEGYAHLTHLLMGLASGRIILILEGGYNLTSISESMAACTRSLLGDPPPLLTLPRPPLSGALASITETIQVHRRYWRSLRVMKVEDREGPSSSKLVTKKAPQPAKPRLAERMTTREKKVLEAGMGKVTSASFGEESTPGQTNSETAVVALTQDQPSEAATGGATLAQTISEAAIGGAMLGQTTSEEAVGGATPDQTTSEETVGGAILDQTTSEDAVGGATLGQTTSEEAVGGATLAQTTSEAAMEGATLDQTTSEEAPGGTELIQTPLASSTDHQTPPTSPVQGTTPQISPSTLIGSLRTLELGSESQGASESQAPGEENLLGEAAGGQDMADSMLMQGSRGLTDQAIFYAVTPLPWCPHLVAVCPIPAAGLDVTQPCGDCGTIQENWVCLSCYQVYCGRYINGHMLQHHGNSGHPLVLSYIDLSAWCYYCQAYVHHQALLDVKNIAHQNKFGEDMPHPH
Description: FLAG-tagged HDAC pBJ5 constructs were transiently transfected by electroporation with 5 μg DNA for expression of recombinant proteins (C. M. Grozinger, C. A. Hassig and S. L. Schreiber, Proc. Natl. Acad. Sci. USA, 27, 4868 (1999); and C. A. Hassig et al., Proc. Natl. Acad. Sci. USA 95, 3519 (1998)]. Cells were mock transfected without DNA or with a non-FLAG-tagged pCMV-LacZ construct as a negative control. Forty-eight hours after transfection recombinant proteins were immunoprecipitated using anti-FLAG M2 agarose affinity gel beads as described [C. A. Hassig et al., Proc. Natl. Acad. Sci. USA 95, 3519 (1998)]. Western blotting using anti-acetylated α-tubulin (1:1000) anti-tubulin (1:1000), and anti-acetylated (K9, K14) histone H3 (1:1000) antibodies was performed using standard methods (K. M. Koeller et al., Chemistry & Biology, 10 (5) (2003) pp. 397-410). […]
[^3H]Acetate-incorporated histones were isolated from butyrate-treated HeLa cells as described [J. Taunton, C. […] Immunoprecipitates were incubated with acetylated histones and HDAC activity determined by scintillation counting as described [J. Taunton, C. […] After centrifugation, the supernatant (diluted to 0.4 μg tubulin) and α-FLAG M2 agarose affinity gel beads were analyzed by western blotting with an anti-FLAG M2 antibody (1:1750) to ensure equal protein levels.

[1] = test system: mouse embryonic stem cells; assay: genome-wide transcriptional profiling (U74Av2 chip); type: cell-based; conditions: TSA 300 nM, tubacin 2 μM
Description: Gene expression analysis of tubacin, TSA, and DMSO-treated mouse embryonic stem cells were performed according to the Affymetrix protocol using an U74Av2 chip as described in full (K. M. Koeller et al., Chemistry & Biology, 10 (5) (2003) pp. 397-410). Present calls were determined by accompanying software and data analysis, including array normalization and clustering, performed using dChip software [C. Li and W. H. Wong, Genome Biol. 2, 32 (2001); and E. E. Schadt, C. Li, B. Ellis and W. H. Wong, J. Cell Biochem. Suppl. 37, 120 (2001)].

Row | Structure (SMILES) | inhibition of HDAC activity of HDAC6F H216A mutant (HDAC6F H216A mutant) | number of genes with altered expression above a 1.3-fold threshold [1]
1 | CC(/C=C/C(=O)NO)=C\[C@@H](C)C(=O)c1ccc(N(C)C)cc1 [TSA, trichostatin A, reference compound] | only partial inhibited by TSA or tubacin | 232 genes
2 | O=C(CCCCCCC(=O)Nc1ccc([C@@H]2OC(c3ccc(CO)cc3)C[C@H](CSc3nc(-c4ccccc4)c(-c4ccccc4)o3)O2)cc1)NO (stereo partly shown) [tubacin] | only partial inhibited by TSA or tubacin | no genes showed a significant alteration in expression
